Measured values taken from patent publication US10968210B2, “Diamino-alkylamino-linked arylsulfonamide compounds with selective activity in voltage-gated sodium channels” (Merck Sharp & Dohme Corp., priority 2016, dated 2021).
pIC50: −log10 of the molar value.

What follows are compounds tested against T1, human Nav 1.7 channels stably expressed in HEK 293 cells (Homo sapiens, UniProt Q15858) (assay: IonWorks Quattro automated patch-clamp, inactivated state block of Nav 1.7). Details: double-pulse protocol, HEK 293 cells held at -100 mV, read-out: potency for the Nav 1.7 sodium ion channel (IC50, IonWorks).
T1 construct: expressed in transfected cells; host or cells: HEK 293
Format: cell-based
Procedure: IonWorks® Experimental Procedure
Compounds were tested on human Nav 1.7 and Nav 1.5 channels stably expressed in HEK 293 cells. Sodium current measurements on IonWorks Quattro: An automated patch-clamp assay on the IonWorks Quattro platform (Molecular Devices) was used to measure state-dependent inhibition of human Nav 1.7 and Nav 1.5 channels. Cells were sealed on a planar substrate using the Population Patch Plate (PPC) technology. Electrical access was obtained using both nystatin and amphotericin. A double-pulse protocol was used for the determination of IC50 values for inactivated state block. Nav 1.7 and Nav 1.5 expressing cells were voltage clamped at −100 mV and −110 mV, respectively. A depolarizing prepulse to −10 mV (Nav 1.7) or −30 mV (Nav 1.5) for 1000 ms followed by a 10 ms repolarization to ˜100 mV (Nav1.7) or −110 mV (Nav 1.5) was given to generate fractional channel inactivation of ˜50%, followed by a 10 ms test pulse to −10 mV (Nav 1.7) or −30 mV (Nav 1.5) to measure peak current in control conditions and after compound addition. The following recording solutions were used (mM). External: 150 NaCl, 2 CaCl2, 5 KCl, 1 Mg Cl2, 10 HEPES, 12 Dextrose; internal: 120 CsF, 30 CsCl, 10 EGTA, 5 HEPES, 5 NaF, 2 MgCl2.
For all electrophysiology experiments, offline analysis was used to determine percent inhibition as a function of drug concentration. IC50 values were determined by fitting to the Hill equation.
The various compounds in Examples 1 through 4 and Tables 1 through 3 exemplified above were assayed for activity and selectivity using the foregoing IonWorks® technique. The results are reported in the following paragraph in a format expressing the identification of the compound with reference Example and compound (e.g. Ex 1-9 is Example 1, compound 9) followed by the observed potency in nM and the ratio of Nav1.7 potency: Nav1.5 potency as described here. Thus, Ex1-9: 1.7=65/ratio=641 identifies compound Example 1, compound 9 as having 65 nM potency for the Nav 1.7 sodium ion channel (as measured by IonWorks®) and a ratio of 641 Nav 1.7: Nav 1.5 potency, determined by IonWorks® measurement.

T1 sequence (Q15858 whole entry): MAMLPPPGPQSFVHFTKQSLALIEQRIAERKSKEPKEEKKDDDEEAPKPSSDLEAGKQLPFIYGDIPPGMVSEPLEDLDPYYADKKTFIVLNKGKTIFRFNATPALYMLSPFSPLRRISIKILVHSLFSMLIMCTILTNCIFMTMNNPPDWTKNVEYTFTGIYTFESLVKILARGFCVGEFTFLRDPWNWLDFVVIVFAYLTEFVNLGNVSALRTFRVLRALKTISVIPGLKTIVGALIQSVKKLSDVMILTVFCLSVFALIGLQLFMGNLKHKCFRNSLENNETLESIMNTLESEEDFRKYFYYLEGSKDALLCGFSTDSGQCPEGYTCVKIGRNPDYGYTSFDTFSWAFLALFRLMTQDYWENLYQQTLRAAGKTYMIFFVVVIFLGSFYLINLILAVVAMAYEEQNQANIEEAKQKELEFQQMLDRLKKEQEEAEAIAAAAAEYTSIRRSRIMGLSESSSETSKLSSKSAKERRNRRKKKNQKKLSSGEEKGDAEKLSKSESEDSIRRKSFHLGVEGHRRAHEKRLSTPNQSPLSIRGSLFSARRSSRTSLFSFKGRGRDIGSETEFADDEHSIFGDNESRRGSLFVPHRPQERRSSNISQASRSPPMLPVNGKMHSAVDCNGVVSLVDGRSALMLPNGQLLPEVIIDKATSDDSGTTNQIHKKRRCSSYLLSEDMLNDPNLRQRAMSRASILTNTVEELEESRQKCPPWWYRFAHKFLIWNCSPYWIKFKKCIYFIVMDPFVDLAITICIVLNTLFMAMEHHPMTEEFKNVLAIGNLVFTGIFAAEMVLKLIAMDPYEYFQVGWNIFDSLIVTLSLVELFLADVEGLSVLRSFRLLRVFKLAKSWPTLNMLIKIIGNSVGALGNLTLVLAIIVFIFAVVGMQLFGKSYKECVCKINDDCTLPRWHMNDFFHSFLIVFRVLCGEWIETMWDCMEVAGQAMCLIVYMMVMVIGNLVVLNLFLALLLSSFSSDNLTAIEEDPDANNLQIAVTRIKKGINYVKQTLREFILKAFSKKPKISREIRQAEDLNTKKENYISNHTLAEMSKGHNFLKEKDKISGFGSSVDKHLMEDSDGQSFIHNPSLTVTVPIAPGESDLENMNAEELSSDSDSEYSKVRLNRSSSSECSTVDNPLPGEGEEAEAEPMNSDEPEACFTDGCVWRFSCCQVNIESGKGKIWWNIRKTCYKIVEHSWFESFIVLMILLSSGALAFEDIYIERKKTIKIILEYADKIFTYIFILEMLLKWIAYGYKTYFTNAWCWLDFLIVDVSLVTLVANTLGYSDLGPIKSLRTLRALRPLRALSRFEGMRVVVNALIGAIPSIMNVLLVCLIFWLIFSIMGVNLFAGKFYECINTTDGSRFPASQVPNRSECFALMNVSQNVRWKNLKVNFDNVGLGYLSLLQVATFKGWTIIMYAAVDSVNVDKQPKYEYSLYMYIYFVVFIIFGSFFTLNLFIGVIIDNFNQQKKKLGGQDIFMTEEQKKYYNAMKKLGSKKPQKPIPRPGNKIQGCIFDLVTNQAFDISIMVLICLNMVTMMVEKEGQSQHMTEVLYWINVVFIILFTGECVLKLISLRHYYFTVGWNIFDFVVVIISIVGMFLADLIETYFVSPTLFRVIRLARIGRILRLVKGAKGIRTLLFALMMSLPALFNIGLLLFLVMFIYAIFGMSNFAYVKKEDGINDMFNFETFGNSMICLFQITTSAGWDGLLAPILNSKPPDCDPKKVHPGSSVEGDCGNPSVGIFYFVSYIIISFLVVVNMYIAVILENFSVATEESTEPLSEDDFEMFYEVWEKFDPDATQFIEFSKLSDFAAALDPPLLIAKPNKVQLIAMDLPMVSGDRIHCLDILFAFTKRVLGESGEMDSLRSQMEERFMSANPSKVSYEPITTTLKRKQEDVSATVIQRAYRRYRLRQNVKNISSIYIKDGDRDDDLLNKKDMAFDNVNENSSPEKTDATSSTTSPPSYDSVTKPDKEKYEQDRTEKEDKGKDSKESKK

Structure (SMILES)	pIC50
O=S(=O)(Nc1nccs1)c1cc(Cl)c(NCCCCNCC2NCc3ccccc32)cc1F (single isomer, unassigned) [Ex 2-4 Enantiomer A, (R or S)-5-chloro-2-fluoro-4-((4-((isoindolin-1-ylmethyl)amino)butyl)amino)-N-(thiazol-2-yl)benzenesulfonamide]	7.54
NCC1CCN1CCCCNc1cc(F)c(S(=O)(=O)Nc2nccs2)cc1Cl (single isomer, unassigned) [Ex 16-52, (R or S)-4-({4-[2-(aminomethyl)-azetidin-1-yl]butyl}amino)-5-chloro-2-fluoro-N-1,3-thiazol-2-ylbenzene-sulfonamide]	7.51
O=S(=O)(Nc1nccs1)c1cc(Cl)c(NCCCCN2CCCC23CCNC3)cc1F (stereo not drawn) [Ex 1-12, 5-chloro-4-{[4-(1,7-diazaspiro[4.4]non-1-yl)butyl]amino}-2-fluoro-N-1,3-thiazol-2-ylbenzenesulfonamide]	7.18
C[C@H](CNC1CCOCC1)NCCCCNc1cc(F)c(S(=O)(=O)Nc2nccs2)cc1Cl [Ex 1-26, 5-chloro-2-fluoro-4-[(4-{[(1R)-1-methyl-2-(tetrahydro-2H-pyran-4-ylamino)ethyl]amino}butyl)amino]-N-1,3-thiazol-2-ylbenzenesulfonamide]	7.52
O=S(=O)(Nc1nccs1)c1cc(Cl)c(NCCCCN2CCC3(CCNC3)C2)cc1F (stereo not drawn) [Ex 1-38, 5-chloro-4-{[4-(2,7-diazaspiro[4.4]non-2-yl)butyl]amino}-2-fluoro-N-1,3-thiazol-2-ylbenzenesulfonamide]	7.36
O=S(=O)(Nc1nccs1)c1cc(Cl)c(NCCCCN2CCC23CCCNC3)cc1F (stereo not drawn) [Ex 1-40, 5-chloro-4-{[4-(1,6-diazaspiro[3.5]non-1-yl)-butyl]amino}-2-fluoro-N-1,3-thiazol-2-yl-benzenesulfonamide]	6.96
NC1C2CN(CCCCNc3cc(F)c(S(=O)(=O)Nc4nccs4)cc3Cl)CC12 (stereo not drawn) [Ex 1-42, 4-{[4-(6-amino-3-azabicyclo[3.1.0]hex-3-yl)butyl]amino}-5-chloro-2-fluoro-N-1,3-thiazol-2-ylbenzenesulfonamide]	7.10
NC1CCCN(CCCCNc2cc(F)c(S(=O)(=O)Nc3nccs3)cc2Cl)CC1 (stereo not drawn) [Ex 1-43, 4-{[4-(4-aminoazepan-1-yl)butyl]amino}-5-chloro-2-fluoro-N-1,3-thiazol-2-ylbenzenesulfonamide]	7.51
NC1CN(CCCCNc2cc(F)c(S(=O)(=O)Nc3nccs3)cc2Cl)C1 [Ex 1-44, 4-{[4-(3-aminoazetidin-1-yl)butyl]amino}-5-chloro-2-fluoro-N-1,3-thiazol-2-ylbenzenesulfonamide]	7.54
NCC1(c2ccccc2)CCN(CCCCNc2cc(F)c(S(=O)(=O)Nc3nccs3)cc2Cl)CC1 [Ex 1-45, 4-({4-[4-(aminomethyl)-4-phenylpiperidin-1-yl]butyl}amino)-5-chloro-2-fluoro-N-1,3-thiazol-2-ylbenzenesulfonamide]	6.96
NCC1CCCN(CCCCNc2cc(F)c(S(=O)(=O)Nc3nccs3)cc2Cl)C1 (stereo not drawn) [Ex 1-46, 4-({4-[3-(aminomethyl)piperidin-1-yl]butyl}amino)-5-chloro-2-fluoro-N-1,3-thiazol-2-ylbenzenesulfonamide]	7.52
O=S(=O)(Nc1nccs1)c1cc(Cl)c(NCCCCNC[C@H]2NCC[C@@H]2c2ccccc2)cc1F [Ex 8-6, 5-chloro-2-fluoro-4-{[4-({[(2S,3R)-3-phenylpyrrolidin-2-yl]-methyl}amino)butyl]amino}-N-1,3-thiazol-2-ylbenzenesulfonamide]	7.68

Second part, the compound after the results:

pIC50	Structure (SMILES)
8.00	O=S(=O)(Nc1nccs1)c1cc(Cl)c(NCCCCNCC2Cc3ccccc3CN2)cc1F (single isomer, unassigned) [Ex 1-19, (S or R)-5-chloro-2-fluoro-4-({4-[(1,2,3,4-tetrahydroisoquinolin-3-ylmethyl)amino]butyl}amino)-N-1,3-thiazol-2-ylbenzenesulfonamide]
7.68	O=S(=O)(Nc1nccs1)c1cc(Cl)c(NCCCCNCC2NCc3ccccc32)cc1F (single isomer, unassigned) [Ex 2-4 Enantiomer B, (S or R)-5-chloro-2-fluoro-4-((4-((isoindolin-1-ylmethyl)amino)butyl)amino)-N-(thiazol-2-yl)benzenesulfonamide]
7.96	O=S(=O)(Nc1nccs1)c1cc(Cl)c(NCCCCN[C@H]2CN[C@H](c3ccccc3)C2)cc1F [Ex 1-8, 5-chloro-2-fluoro-4-[(4-{[(3R,5S)-5-phenylpyrrolidin-3-yl]amino}butyl)amino]-N-1,3-thiazol-2-ylbenzenesulfonamide]
7.89	O=S(=O)(Nc1nccs1)c1cc(Cl)c(NCCCCNCC2Cc3ccccc3CN2)cc1F (stereo not drawn) [Ex 1-9, 5-chloro-2-fluoro-4-({4-[(1,2,3,4-tetrahydroisoquinolin-3-ylmethyl)amino]butyl}amino)-N-1,3-thiazol-2-ylbenzenesulfonamide]
7.72	N[C@H]1CCN(CCCCNc2cc(F)c(S(=O)(=O)Nc3nccs3)cc2Cl)C1 [Ex 1-11, 4-({4-[(3S)-3-aminopyrrolidin-1-yl]butyl}amino)-5-chloro-2-fluoro-N-1,3-thiazol-2-ylbenzenesulfonamide]
7.80	O=S(=O)(Nc1nccs1)c1cc(Cl)c(NCCCCN2CC3CCCNC3C2)cc1F (stereo not drawn) [Ex 1-13, 5-chloro-2-fluoro-4-{[4-(octahydro-6H-pyrrolo[3,4-b]pyridin-6-yl)butyl]amino}-N-1,3-thiazol-2-ylbenzenesulfonamide]
7.68	O=S(=O)(Nc1nccs1)c1cc(Cl)c(NCCCCN2CC[C@@H]3CCNC[C@@H]32)cc1F [Ex 1-21, 5-chloro-2-fluoro-4-({4-[(3a5,7aR)-octahydro-1H-pyrrolo[2,3-c]pyridin-1-yl]butyl}amino)-N-1,3-thiazol-2-ylbenzenesulfonamide]
7.80	NCC(NCCCCNc1cc(F)c(S(=O)(=O)Nc2nccs2)cc1Cl)c1ccccc1 (stereo not drawn) [Ex 1-32, 4-({4-[(2-amino-1-phenylethyl)amino]butyl}amino)-5-chloro-2-fluoro-N-1,3-thiazol-2-ylbenzenesulfonamide]
7.68	NCc1ccccc1CNCCCCNc1cc(F)c(S(=O)(=O)Nc2nccs2)cc1Cl [Ex 3-4, 4-((4-((2-(aminomethyl)benzyl)amino)butyl)amino)-5-chloro-2-fluoro-N-(thiazol-2-yl)benzenesulfonamide]
7.80	O=S(=O)(Nc1ncc(F)s1)c1ccc(NCCCCNC[C@@H]2CCCN2)c(Cl)c1 [Ex 7-13, 3-chloro-N-(5-fluoro-1,3-thiazol-2-yl)-4-[(4-{[(2S)-pyrrolidin-2-ylmethyl]amino}butyl)amino]benzenesulfonamide]
7.89	O=S(=O)(Nc1nccs1)c1cc(Cl)c(NCCCCNC[C@@H]2CC[C@H](c3ccccc3)N2)cc1F [Ex 8-3, 5-chloro-2-fluoro-4-{[4-({[(2S,5R)-5-phenylpyrrolidin-2-yl]methyl}-amino)butyl]-amino}-N-1,3-thiazol-2-yl-benzenesulfonamide]
7.80	O=S(=O)(Nc1nccs1)c1cc(Cl)c(NCCCCNC[C@@H]2C[C@H](c3ccccc3)CN2)cc1F [Ex 8-13, 5-chloro-2-fluoro-4-{[4-({[(2S,4R)-4-phenylpyrrolidin-2-yl]-methyl}amino)-butyl]amino}-N-1,3-thiazol-2-yl-benzenesulfonamide]
